Data on 66 compounds can be found in patent US20250122147A1, “ARYL CYCLOHEXANEDIONE DERIVATIVE OR SALT THEREOF, PEST CONTROL AGENT CONTAINING SAME, AND METHOD FOR USE THEREOF” (ADEKA Corporation, priority 2021, published 2025).

In this series the test system is Plutella xylostella. In words: Insecticidal test against Plutella xylostella. Particulars: 500 ppm drug solution; Chinese cabbage seedlings with eggs immersed about 30 sec; six days after immersion; 25° C.

Excerpt: Six days after the immersion in the drug solution, the number of surviving insects was examined. […] In triplicate using 10 per plot.

Take `Cc1ccc(NC(=O)C2=C(O)CC(c3ccc(C(F)(F)F)cc3)CC2=O)cc1` (stereo not drawn) [1-15]: the “corrected mortality, rating of assessment” value (“corrected mortality, rating” for short) is “D or higher”.
For `Cc1ccc(C2CC(=O)C(C(=O)Nc3ccc(F)cc3)=C(O)C2)s1` (stereo not drawn) [1-76] the value was “D or higher”; for `O=C1CC(c2ccc(C(F)(F)F)cc2)CC(O)=C1C(=O)NC1CCCCC1` (stereo not drawn) [1-11], “D or higher”.
For `O=C1CC(c2ccc(SC(F)(F)F)cc2)CC(O)=C1C(=O)Nc1ccc(Cl)cc1` (stereo not drawn) [1-235] the value was “D or higher”.
As for `O=C1CC(c2ccc(Cl)s2)CC(O)=C1C(=O)Nc1ccc(F)cc1` (stereo not drawn) [1-145], the “corrected mortality, rating” value was “D or higher”.
The value for `O=C1CC(c2cnco2)CC(O)=C1C(=O)Nc1ccc(F)cc1` (stereo not drawn) [1-223] was “D or higher”.
For `O=C1CC(c2ccc(SC(F)(F)F)cc2)CC(O)=C1C(=O)Nc1ccc(F)cc1` (stereo not drawn) [1-213] the value was “D or higher”; for `CSc1ccc(NC(=O)C2=C(O)CC(c3ccc(C(F)(F)F)cc3)CC2=O)cc1` (stereo not drawn) [1-49], “D or higher”; for `O=C1CC(c2ccc(C(F)(F)F)cc2)CC(O)=C1C(=O)Nc1ccc([S+]([O-])C(F)(F)F)cc1` (stereo not drawn) [1-52], “D or higher”.
The value for `CSc1ccc(C2CC(=O)C(C(=O)Nc3ccc(F)cc3)=C(O)C2)cc1` (stereo not drawn) [1-208] was “D or higher”; that for `O=C1CC(c2ccc(C(F)(F)F)c(Cl)c2)CC(O)=C1C(=S)Nc1ccc(C(F)(F)F)cc1` (stereo not drawn) [1-77] was “D or higher”; that for `O=C1CC(c2ccc(C(F)(F)F)cc2)CC(O)=C1C(=O)Nc1ncc(F)cn1` (stereo not drawn) [1-155] was “D or higher”.
In the case of `CS(=O)(=O)c1ccc(C2CC(=O)C(C(=O)Nc3ccc(Cl)cc3)=C(O)C2)cc1` (stereo not drawn) [1-232], the “corrected mortality, rating” value is recorded as “D or higher”.
The value for `Cc1ccc(C2CC(=O)C(C(=O)Nc3ccc(F)cc3)=C(O)C2)cc1` (stereo not drawn) [1-63] was “D or higher”; that for `O=C1CC(c2ccc(C(F)(F)F)cc2)CC(O)=C1C(=S)Nc1ccccc1F` (stereo not drawn) [1-94] was “D or higher”; that for `O=C1CC(c2cc(C(F)(F)F)cc(C(F)(F)F)c2)CC(O)=C1C(=O)Nc1ccc(F)cc1` (stereo not drawn) [1-2] was “D or higher”.
For `O=C1CC(c2ccc(C(F)(F)F)nc2)CC(O)=C1C(=O)Nc1ccc(OC(F)(F)F)cc1` (stereo not drawn) [1-70] the value was “D or higher”.
The value for `O=C1CC(c2ccc(C(F)(F)F)cc2)CC(O)=C1C(=S)Nc1cccc(C(F)(F)F)c1` (stereo not drawn) [1-99] was “D or higher”.
With `O=C1CC(c2ccc(SC(F)(F)F)cc2)CC(O)=C1C(=O)Nc1ccc(F)cc1` (stereo not drawn) [1-66], the “corrected mortality, rating” value is reported as “D or higher”.
The value for `O=C1CC(c2ccc([N+](=O)[O-])cc2)CC(O)=C1C(=O)Nc1ccc(F)cc1` (stereo not drawn) [1-207] was “D or higher”.
The value for `O=C1CC(c2ccc(Br)cn2)CC(O)=C1C(=S)Nc1ccc(F)cc1` (stereo not drawn) [1-229] was “D or higher”.
For `CSc1ccc(C2CC(=O)C(C(=O)Nc3ccc(Cl)cc3)=C(O)C2)cc1` (stereo not drawn) [1-234] the value was “D or higher”.
`O=C1CC(c2ccc(C(F)(F)F)cc2)CC(O)=C1C(=O)Nc1ccc(S(F)(F)(F)(F)F)cc1` (stereo not drawn) [1-184]: the “corrected mortality, rating” value is “D or higher”.
For `O=C1CC(c2ccc(C(F)(F)F)cc2)CC(O)=C1C(=O)NC1CC1` (stereo not drawn) [1-144] the value was “D or higher”; for `Cc1ccc(C2CC(=O)C(C(=O)Nc3ccc(F)cn3)=C(O)C2)cc1` (stereo not drawn) [1-148], “D or higher”.
Consider `CS(=O)(=O)c1ccc(C2CC(=O)C(C(=O)Nc3ccc(F)cc3)=C(O)C2)cc1` (stereo not drawn) [1-210], for which the “corrected mortality, rating” value is given as “D or higher”.
For `O=C1CC(c2ccc(C(F)(F)F)cc2)CC(O)=C1C(=O)Nc1ccc(Cl)cc1Cl` (stereo not drawn) [1-22] the value was “D or higher”; for `O=C1CC(c2ccc(C(F)(F)F)cc2)CC(O)=C1C(=O)Nc1ccc(F)cc1` (stereo not drawn) [1-6], “D or higher”.
For `O=C1CC(c2ccc(C(F)(F)F)nc2)CC(O)=C1C(=S)Nc1ccc(F)cn1` (stereo not drawn) [1-231] the value was “D or higher”; for `O=C1CC(c2ccc([S+]([O-])C(F)(F)F)cc2)CC(O)=C1C(=O)Nc1ccc(F)cc1` (stereo not drawn) [1-211], “D or higher”.
For `O=C1CC(c2ccc(S(=O)(=O)C(F)(F)F)cc2)CC(O)=C1C(=O)Nc1ccc(F)cc1` (stereo not drawn) [1-209] the value was “D or higher”.
As for `O=C1CC(c2ccc(C(F)(F)F)cc2)CC(O)=C1C(=O)Nc1cccs1` (stereo not drawn) [1-40], the “corrected mortality, rating” value is given as “D or higher”.
The value for `O=C1CC(c2ccc(C(F)(F)F)cc2)CC(O)=C1C(=S)Nc1ccccc1` (stereo not drawn) [1-93] was “D or higher”; that for `O=C1CC(c2ccc(C(F)(F)F)cc2)CC(O)=C1C(=O)NCc1ccccc1` (stereo not drawn) [1-12] was “D or higher”; that for `O=C1CC(c2ccc(C(F)(F)F)cc2)CC(O)=C1C(=O)Nc1ccnc(F)c1` (stereo not drawn) [1-147] was “D or higher”.
For `CC1(c2ccc(C(F)(F)F)cc2)CC(=O)C(C(=S)Nc2ccc(F)cc2)=C(O)C1` (stereo not drawn) [1-140], the “corrected mortality, rating” value is listed as “D or higher”.
The value for `O=C1CC(c2ccc(C(F)(F)F)cc2)CC(O)=C1C(=O)Nc1ccc(F)nn1` (stereo not drawn) [1-162] was “D or higher”; that for `O=C1CC(c2ccc(C(F)(F)F)cc2)CC(O)=C1C(=O)Nc1cccc(Cl)c1` (stereo not drawn) [1-21] was “D or higher”.
`O=C1CC(c2ccc(C(F)(F)F)cc2)CC(O)=C1C(=O)Nc1ccc2c(c1)OCO2` (stereo not drawn) [1-55]: the “corrected mortality, rating” value is on record as “D or higher”.
The value for `COc1ccc(NC(=O)C2=C(O)CC(c3ccc(C(F)(F)F)cc3)CC2=O)cc1` (stereo not drawn) [1-8] was “D or higher”.
In the case of `O=C1CC(c2ccc(C(F)(F)F)cc2)CC(O)=C1C(=O)Nc1cccc2ccccc12` (stereo not drawn) [1-39], the “corrected mortality, rating” value is listed as “D or higher”.
Consider `O=C1CC(c2ccc(C(F)(F)F)cc2)CC(O)=C1C(=O)Nc1c(Cl)cccc1Cl` (stereo not drawn) [1-23], for which the “corrected mortality, rating” value was “D or higher”.
For `O=C1CC(c2ccc(C(F)(F)F)cc2)CC(O)=C1C(=O)Nc1ccc(C(F)(F)F)cn1` (stereo not drawn) [1-142] the value was “D or higher”; for `CS(=O)(=O)c1ccc(C2CC(=O)C(C(=O)Nc3ccc(F)cn3)=C(O)C2)cc1` (stereo not drawn) [1-165], “D or higher”.
On to `N#Cc1ccc(NC(=S)C2=C(O)CC(c3ccc(C(F)(F)F)cc3)CC2=O)cc1` (stereo not drawn) [1-100], for which the “corrected mortality, rating” value is on record as “D or higher”.
The value for `O=C1CC(c2ccc(C(F)(F)F)cc2)CC(O)=C1C(=O)Nc1ccccc1F` (stereo not drawn) [1-38, N-(2-fluorophenyl)-5-hydroxy-3-oxo-4′-(trifluoromethyl)-1,2,3,6-tetrahydro-[1,1′-biphenyl]-4-carboxamide] was “D or higher”; that for `O=C1CC(c2ccc(C(F)(F)F)c(Cl)c2)CC(O)=C1C(=O)Nc1ccc(F)cc1` (stereo not drawn) [1-3] was “D or higher”.
The value for `O=C1CC(c2ccc(C(F)(F)F)cc2)CC(O)=C1C(=S)Nc1ccc(F)cc1` (stereo not drawn) [1-81] was “D or higher”; that for `O=C1CC(c2ccc(C(F)(F)F)cc2)CC(O)=C1C(=S)Nc1ccc(F)cn1` (stereo not drawn) [1-108] was “D or higher”.
The value for `Cc1cc(Cl)ccc1NC(=O)C1=C(O)CC(c2ccc(C(F)(F)F)cc2)CC1=O` (stereo not drawn) [1-16] was “D or higher”.
Turning to `O=C1CC(c2ccc(C(F)(F)F)cc2)CC(O)=C1C(=O)Nc1cccc(C(F)(F)F)c1` (stereo not drawn) [1-30], the “corrected mortality, rating” value is given as “D or higher”.
For the compound `C[S+]([O-])c1ccc(C2CC(=O)C(C(=O)Nc3ccc(F)cc3)=C(O)C2)cc1` (stereo not drawn) [1-212], the “corrected mortality, rating” value was “D or higher”.
The value for `O=C1CC(c2ccc(C(F)(F)F)cc2)CC(O)=C1C(=O)Nc1ccc(S(=O)(=O)C(F)(F)F)cc1` (stereo not drawn) [1-53] was “D or higher”; that for `Cc1ccccc1C1CC(=O)C(C(=O)Nc2ccc(F)cc2)=C(O)C1` (stereo not drawn) [1-1] was “D or higher”; that for `O=C1CC(c2ccc(C(F)(F)F)cc2)CC(O)=C1C(=O)Nc1ccc(Oc2ccccc2)cc1` (stereo not drawn) [1-54] was “D or higher”.
The value for `Cn1ccc(NC(=O)C2=C(O)CC(c3ccc(C(F)(F)F)cc3)CC2=O)n1` (stereo not drawn) [1-167] was “D or higher”; that for `O=C1CC(c2ccc(C(F)(F)F)cc2)CC(O)=C1C(=O)Nc1c(F)c(F)c(F)c(F)c1F` (stereo not drawn) [1-45] was “D or higher”.
On to `O=C1CC(c2ccc(C(F)(F)F)cc2)CC(O)=C1C(=O)Nc1cccc(F)c1` (stereo not drawn) [1-43], for which the “corrected mortality, rating” value is given as “D or higher”.
For `O=C1CC(c2ccc(C(F)(F)F)cc2)CC(O)=C1C(=O)Nc1cccc([N+](=O)[O-])c1` (stereo not drawn) [1-35] the value was “D or higher”; for `CC(=O)c1ccc(NC(=O)C2=C(O)CC(c3ccc(C(F)(F)F)cc3)CC2=O)cc1` (stereo not drawn) [1-36], “D or higher”; for `N#Cc1cccc(NC(=O)C2=C(O)CC(c3ccc(C(F)(F)F)cc3)CC2=O)c1` (stereo not drawn) [1-34], “D or higher”.
The value for `O=C1CC(c2ccc3c(c2)OCO3)CC(O)=C1C(=O)Nc1ccc(F)cc1` (stereo not drawn) [1-222] was “D or higher”.
As for `N#Cc1ccc(NC(=O)C2=C(O)CC(c3ccc(C(F)(F)F)cc3)CC2=O)cc1` (stereo not drawn) [1-7], the “corrected mortality, rating” value is “D or higher”.
For `O=C1CC(c2ccc(OC(F)(F)F)cc2)CC(O)=C1C(=O)Nc1ccc(F)cc1` (stereo not drawn) [1-65] the value was “D or higher”; for `C[S+]([O-])c1ccc(C2CC(=O)C(C(=O)Nc3ccc(Cl)cc3)=C(O)C2)cc1` (stereo not drawn) [1-233], “D or higher”; for `O=C1CC(c2ccc(C(F)(F)F)cc2)CC(O)=C1C(=O)Nc1c(F)cccc1F` (stereo not drawn) [1-18], “D or higher”.
